Species on record: Rattus norvegicus
Experiment: Open TG-GATES - Regimen: Daily Repeat
Assay type: toxicity, organism-based, Sprague-Dawley
Parameters: regimen Daily Repeat, gender Male, age 6 weeks
Details: in vivo, po, 100 mg/kg, route gavage, dose level Middle; for APTT / Bas / Eos / Fbg / Hb / Ht / Lym / MCH / MCHC / MCV / Mono / Neu / PT / Plat / RBC / Ret / WBC: tissue Blood; for KIDNEY_L / KIDNEY_R / KIDNEY_TOTAL: tissue Kidney; for LIVER: tissue Liver; for A/G / ALP / ALT / AST / BUN / CRE / Ca / Cl / DBIL / GLC / IP / K / LDH / Na / PL / RALB / TBIL / TC / TG / TP / gamma-GTP: tissue Plasma

NNC(=O)c1ccncc1 [ISONIAZID]
TERMINAL_BW (72 h, time 3 day): 217.2 g
APTT (72 h, time 3 day): 15.8 s
Bas (72 h, time 3 day): 0%
Eos (72 h, time 3 day): 0.6%
Fbg (72 h, time 3 day): 245.2 mg/dL
Hb (72 h, time 3 day): 13.4 g/dL
Ht (72 h, time 3 day): 40.2%
Lym (72 h, time 3 day): 82.2%
MCH (72 h, time 3 day): 21.8 pg
MCHC (72 h, time 3 day): 33.4%
MCV (72 h, time 3 day): 65.2 fL
Mono (72 h, time 3 day): 5%
Neu (72 h, time 3 day): 12.2%
PT (72 h, time 3 day): 12.1 s
Plat (72 h, time 3 day): 115.4 x10_4/uL
RBC (72 h, time 3 day): 616.6 x10_4/ul
Ret (72 h, time 3 day): 7.3%
WBC (72 h, time 3 day): 87 x10_2/uL
KIDNEY_L (72 h, time 3 day): 1.1 g
KIDNEY_R (72 h, time 3 day): 1.1 g
KIDNEY_TOTAL (72 h, time 3 day): 2.1 g
LIVER (72 h, time 3 day): 11.5 g
A/G (72 h, time 3 day): 1.7
ALP (72 h, time 3 day): 962 IU/L
ALT (72 h, time 3 day): 18.6 IU/L
AST (72 h, time 3 day): 55 IU/L
BUN (72 h, time 3 day): 17.2 mg/dL
CRE (72 h, time 3 day): 0.5 mg/dL
Ca (72 h, time 3 day): 10.9 mg/dL
Cl (72 h, time 3 day): 103.4 meq/L
DBIL (72 h, time 3 day): 0.014 mg/dL
GLC (72 h, time 3 day): 204.2 mg/dL
IP (72 h, time 3 day): 8.6 mg/dL
K (72 h, time 3 day): 5 meq/L
LDH (72 h, time 3 day): 93.4 IU/L
Na (72 h, time 3 day): 140.6 meq/L
PL (72 h, time 3 day): 158.6 mg/dL
RALB (72 h, time 3 day): 3.7 g/dL
TBIL (72 h, time 3 day): 0.3 mg/dL
TC (72 h, time 3 day): 81.4 mg/dL
TG (72 h, time 3 day): 104.6 mg/dL
TP (72 h, time 3 day): 6 g/dL
gamma-GTP (72 h, time 3 day): 1 IU/L
TERMINAL_BW ([…], time 7 day): 244.8 g
TERMINAL_BW ([…], time 14 day): 283.5 g
TERMINAL_BW ([…], time 28 day): 361.7 g
APTT ([…], time 7 day): 16.2 s
Bas ([…], time 7 day): 0%
Eos ([…], time 7 day): 1%
Fbg ([…], time 7 day): 234.8 mg/dL
Hb ([…], time 7 day): 13.6 g/dL
Ht ([…], time 7 day): 40.6%
Lym ([…], time 7 day): 84.2%
MCH ([…], time 7 day): 21.2 pg
MCHC ([…], time 7 day): 33.5%
MCV ([…], time 7 day): 63.2 fL
Mono ([…], time 7 day): 6.6%
Neu ([…], time 7 day): 8.8%
PT ([…], time 7 day): 12.2 s
Plat ([…], time 7 day): 121.4 x10_4/uL
RBC ([…], time 7 day): 641.8 x10_4/ul
Ret ([…], time 7 day): 6.3%
WBC ([…], time 7 day): 150.1 x10_2/uL
APTT ([…], time 14 day): 15.7 s
Bas ([…], time 14 day): 0%
Eos ([…], time 14 day): 0.8%
Fbg ([…], time 14 day): 221.4 mg/dL
Hb ([…], time 14 day): 13.9 g/dL
Ht ([…], time 14 day): 41.4%
Lym ([…], time 14 day): 83.4%
MCH ([…], time 14 day): 19.7 pg
MCHC ([…], time 14 day): 33.6%
MCV ([…], time 14 day): 58.6 fL
Mono ([…], time 14 day): 4.6%
Neu ([…], time 14 day): 10.8%
PT ([…], time 14 day): 12.1 s
Plat ([…], time 14 day): 125.3 x10_4/uL
RBC ([…], time 14 day): 706.6 x10_4/ul
Ret ([…], time 14 day): 5.1%
WBC ([…], time 14 day): 172.6 x10_2/uL
APTT ([…], time 28 day): 16.3 s
Bas ([…], time 28 day): 0%
Eos ([…], time 28 day): 1.4%
Fbg ([…], time 28 day): 227.4 mg/dL
Hb ([…], time 28 day): 14.4 g/dL
Ht ([…], time 28 day): 42.8%
Lym ([…], time 28 day): 80.6%
MCH ([…], time 28 day): 18.6 pg
MCHC ([…], time 28 day): 33.8%
MCV ([…], time 28 day): 55 fL
Mono ([…], time 28 day): 3.6%
Neu ([…], time 28 day): 14.4%
PT ([…], time 28 day): 12.2 s
Plat ([…], time 28 day): 119.2 x10_4/uL
RBC ([…], time 28 day): 780 x10_4/ul
Ret ([…], time 28 day): 2.9%
WBC ([…], time 28 day): 151.6 x10_2/uL
KIDNEY_L ([…], time 7 day): 1.1 g
KIDNEY_R ([…], time 7 day): 1.1 g
KIDNEY_TOTAL ([…], time 7 day): 2.2 g
KIDNEY_L ([…], time 14 day): 1.2 g
KIDNEY_R ([…], time 14 day): 1.2 g
KIDNEY_TOTAL ([…], time 14 day): 2.5 g
KIDNEY_L ([…], time 28 day): 1.4 g
KIDNEY_R ([…], time 28 day): 1.5 g
KIDNEY_TOTAL ([…], time 28 day): 2.9 g
LIVER ([…], time 7 day): 11.5 g
LIVER ([…], time 14 day): 12.7 g
LIVER ([…], time 28 day): 15.3 g
A/G ([…], time 7 day): 1.6
ALP ([…], time 7 day): 823.2 IU/L
ALT ([…], time 7 day): 15.4 IU/L
AST ([…], time 7 day): 56.6 IU/L
BUN ([…], time 7 day): 18.4 mg/dL
CRE ([…], time 7 day): 0.5 mg/dL
Ca ([…], time 7 day): 10.3 mg/dL
Cl ([…], time 7 day): 105.4 meq/L
DBIL ([…], time 7 day): 0.052 mg/dL
GLC ([…], time 7 day): 215.4 mg/dL
IP ([…], time 7 day): 8.4 mg/dL
K ([…], time 7 day): 4.9 meq/L
LDH ([…], time 7 day): 92.2 IU/L
Na ([…], time 7 day): 139.4 meq/L
PL ([…], time 7 day): 134.8 mg/dL
RALB ([…], time 7 day): 3.6 g/dL
TBIL ([…], time 7 day): 0.3 mg/dL
TC ([…], time 7 day): 70.4 mg/dL
TG ([…], time 7 day): 91.6 mg/dL
TP ([…], time 7 day): 5.9 g/dL
gamma-GTP ([…], time 7 day): 1 IU/L
A/G ([…], time 14 day): 1.7
ALP ([…], time 14 day): 722 IU/L
ALT ([…], time 14 day): 11.8 IU/L
AST ([…], time 14 day): 53.4 IU/L
BUN ([…], time 14 day): 19.6 mg/dL
CRE ([…], time 14 day): 0.5 mg/dL
Ca ([…], time 14 day): 10.4 mg/dL
Cl ([…], time 14 day): 106 meq/L
DBIL ([…], time 14 day): 0.04 mg/dL
GLC ([…], time 14 day): 217.2 mg/dL
IP ([…], time 14 day): 8 mg/dL
K ([…], time 14 day): 5.1 meq/L
LDH ([…], time 14 day): 92 IU/L
Na ([…], time 14 day): 138.6 meq/L
PL ([…], time 14 day): 140.4 mg/dL
RALB ([…], time 14 day): 3.8 g/dL
TBIL ([…], time 14 day): 0.4 mg/dL
TC ([…], time 14 day): 70 mg/dL
TG ([…], time 14 day): 94.8 mg/dL
TP ([…], time 14 day): 6.1 g/dL
gamma-GTP ([…], time 14 day): 1 IU/L
A/G ([…], time 28 day): 1.4
ALP ([…], time 28 day): 589.6 IU/L
ALT ([…], time 28 day): 11.6 IU/L
AST ([…], time 28 day): 55.2 IU/L
BUN ([…], time 28 day): 20.2 mg/dL
CRE ([…], time 28 day): 0.5 mg/dL
Ca ([…], time 28 day): 10 mg/dL
Cl ([…], time 28 day): 104.6 meq/L
DBIL ([…], time 28 day): 0.024 mg/dL
GLC ([…], time 28 day): 222.6 mg/dL
IP ([…], time 28 day): 6.9 mg/dL
K ([…], time 28 day): 4.5 meq/L
LDH ([…], time 28 day): 75.8 IU/L
Na ([…], time 28 day): 140.6 meq/L
PL ([…], time 28 day): 141.8 mg/dL
RALB ([…], time 28 day): 3.6 g/dL
TBIL ([…], time 28 day): 0.2 mg/dL
TC ([…], time 28 day): 68.6 mg/dL
TG ([…], time 28 day): 105.4 mg/dL
TP ([…], time 28 day): 6.2 g/dL
gamma-GTP ([…], time 28 day): 1 IU/L

Reference: ChEMBL document CHEMBL3885861, “Open TG-GATES”
